The target in data set [1] is IRAK4 (Homo sapiens (Human), UniProt Q9NWZ3). In words: IRAK4 Inhibition Assay. The conditions noted are these: ATP 500 μM; IRAK4 0.6 nM. Type of data set: biochemical. Summed up:
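Mobility-shift readout: phosphorylated and unphosphorylated fluorescent peptide (1.5 μM) resolved by electrophoresis after a 60 min room-temperature reaction stopped with EDTA. Reaction holds 0.6 nM IRAK4, 500 μM ATP and 1.6% DMSO in HEPES pH 7.2/MgCl2/Brij 35/DTT buffer; percent inhibition set against vehicle and no-enzyme controls.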

For data set [2], the system named is Caco-2 cells. The experiment in a line: Caco-2 Permeability Assay. The data set is classed as in vitro ADME. The conditions noted are these: test compound 3 μM. Summed up: (§1)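 Bidirectional permeability measured over 2 h at 37° C, compound dosed at 3 μM in the donor compartment (apical for absorptive, basolateral for secretive) with plain buffer as receiver.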

Data set [3] deals with Human whole blood stimulated with a TLR2 agonist (lipoteichoic acid), IL-6 levels. In words: IRAK4 Whole Blood Assay. The data set is classed as cell-based. As to conditions: lipoteichoic acid 10 μg/mL. In short, it runs like this: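 ACD-A-anticoagulated human whole blood was preincubated with compounds for 60 min at 37 °C under 5% CO2. It was then stimulated with 10 μg/mL lipoteichoic acid (final) in RPMI for 5 h. IL-6 in plasma supernatants was measured by flow cytometry bead assay.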

Data set [4] is described as follows: Caco-2 Permeability Assay. The data set is classed as in vitro ADME. The conditions noted are these: human, Caco-2, test compound 3 μM. In short, it runs like this:
as §1
(In general: Passage across Caco-2 layers is used to estimate intestinal permeability.)

This note sets out measurements from patent US10294229B2, “Heteroaryl substituted aminopyridine compounds” (BRISTOL-MYERS SQUIBB COMPANY, priority 2015, dated 2019).

As usually defined, the IC50 is the concentration at which inhibition is half-maximal. As a reminder, the EC50 is the concentration at which the effect is half-maximal. A higher EC50 goes with weaker potency. Broadly, the Papp is a coefficient for how fast a substance crosses the barrier. A lower Papp goes with poor permeation.

Sequence of IRAK4 (Q9NWZ3 whole entry, species assumed): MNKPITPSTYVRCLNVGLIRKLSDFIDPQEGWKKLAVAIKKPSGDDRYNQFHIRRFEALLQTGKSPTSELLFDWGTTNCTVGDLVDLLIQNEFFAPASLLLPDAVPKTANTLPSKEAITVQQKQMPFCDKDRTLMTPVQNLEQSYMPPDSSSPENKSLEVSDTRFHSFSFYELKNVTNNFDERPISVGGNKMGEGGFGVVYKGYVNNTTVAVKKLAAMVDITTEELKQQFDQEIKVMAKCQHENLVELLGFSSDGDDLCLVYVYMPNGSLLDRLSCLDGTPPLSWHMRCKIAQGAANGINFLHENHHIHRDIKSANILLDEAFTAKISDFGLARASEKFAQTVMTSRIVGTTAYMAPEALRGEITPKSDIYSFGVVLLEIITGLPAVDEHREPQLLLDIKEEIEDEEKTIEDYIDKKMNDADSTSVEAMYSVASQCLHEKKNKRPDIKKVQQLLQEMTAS

Turning to `CC(=O)N1CCCC(n2cc(-c3cnc(-n4ncc5cc(C#N)cnc54)cc3NC(C)C)nn2)C1` (centres unmarked) [Example 161, 1-(5-(1-(1-acetylpiperidin-3-yl)-1H-1,2,3-triazol-4-yl)-4-(isopropylamino)pyridin-2-yl)-1H-pyrazolo[3,4-b]pyridine-5-carbonitrile], the IC50 in data set [1] came to 2 nM. For the same molecule, the “Caco-2 Permeability” value in data set [2] amounted to 35 nm/s. In data set [3], this molecule gave a 50% effective concentration (EC50) of 250 nM.

On to `CC(C)Nc1cc(-n2ncc3cc(C#N)cnc32)ncc1-c1cn(CC2CC2(F)F)nn1` (single isomer, unassigned) [Example 32, 1-(5-(1-((2,2-difluorocyclopropyl)methyl)-1H-1,2,3-triazol-4-yl)-4-(isopropylamino)pyridin-2-yl)-1H-pyrazolo[3,4-b]pyridine-5-carbonitrile], for which the IC50 in data set [1] was found to be 5 nM. Further, in data set [2], the “Caco-2 Permeability” value is 162 nm/s. Besides, the EC50 in data set [3] was 370 nM.

In the case of `CC(C)Nc1cc(-n2ncc3cc(C#N)cnc32)ncc1-c1cc(C2COCCN2)no1` (single isomer, unassigned) [Example 400, Isomer 1, 1-(4-(isopropylamino)-5-(3-(morpholin-3-yl)isoxazol-5-yl)pyridin-2-yl)-1H-pyrazolo[3,4-b]pyridine-5-carbonitrile], the IC50 in data set [1] stood at 3 nM. For the same molecule, in data set [2] (listed as 400, Isomer 1), the “Caco-2 Permeability” value came to 224 nm/s. The molecule further came in with an EC50 in data set [3] (Homo sapiens) of 230 nM.

Regarding `CC(C)Nc1cc(-n2ncc3cc(C#N)cnc32)ncc1-c1cc(CC(C)(C)O)on1` [Example 439, 1-(5-(5-(2-hydroxy-2-methylpropyl)isoxazol-3-yl)-4-(isopropylamino)pyridin-2-yl)-1H-pyrazolo[3,4-b]pyridine-5-carbonitrile], the “Caco-2 Permeability” value in data set [2] was 310 nm/s. In data set [3], this molecule showed an EC50 of 250 nM.

As for `CC(C)(O)CCc1cn(-c2cnc(-n3ncc4cc(C#N)cnc43)cc2NC2CCC(F)(F)C2)nn1` (single isomer, unassigned) [Example 347, 1-(4-((3,3-difluorocyclopentyl)amino)-5-(4-(3-hydroxy-3-methylbutyl)-1H-1,2,3-triazol-1-yl)pyridin-2-yl)-1H-pyrazolo[3,4-b]pyridine-5-carbonitrile], the IC50 in data set [1] was determined as 2 nM. In data set [4], this molecule gave an apparent permeability (Papp) at 2 h, 3 µM of 9.7 ×10⁻⁶ cm/s. In data set [3] (Homo sapiens), the half-maximal effective concentration (EC50) was determined as 430 nM.

Consider `CC(C)Nc1cc(-n2ncc3cc(C#N)c(N)nc32)ncc1-n1cc(CCC(C)(C)O)nn1` [Example 371, 6-amino-1-(5-(4-(3-hydroxy-3-methylbutyl)-1H-1,2,3-triazol-1-yl)-4-(isopropylamino)pyridin-2-yl)-1H-pyrazolo[3,4-b]pyridine-5-carbonitrile], for which the IC50 in data set [1] was found to be 1 nM. For the same molecule, in data set [4], the Papp at 2 h, 3 µM was less than 1.5 ×10⁻⁶ cm/s. In data set [3] (Homo sapiens), this molecule gave an EC50 of 130 nM.

Turning to `CC(=O)N1CC[C@H](n2cc(-c3cnc(-n4ncc5cc(C#N)cnc54)cc3NC(C)C)nn2)[C@H](O)C1` [Example 178, 1-(5-(1-((3R,4S)-1-acetyl-3-hydroxypiperidin-4-yl)-1H-1,2,3-triazol-4-yl)-4-(isopropylamino)pyridin-2-yl)-1H-pyrazolo[3,4-b]pyridine-5-carbonitrile], the IC50 in data set [1] amounted to 6 nM. Further, the Papp at 2 h, 3 µM in data set [4] was less than 1.5 ×10⁻⁶ cm/s. In data set [3] (Homo sapiens), this molecule returned an EC50 of 530 nM.

In the case of `CC(=O)N1CC(n2cc(-c3cnc(-n4ncc5cc(C#N)cnc54)cc3NC(C)C)nn2)C1` [Example 154, 1-(5-(1-(1-acetylazetidin-3-yl)-1H-1,2,3-triazol-4-yl)-4-(isopropylamino)pyridin-2-yl)-1H-pyrazolo[3,4-b]pyridine-5-carbonitrile], the half-maximal inhibitory concentration (IC50) in data set [1] is 4 nM. The Papp at 2 h, 3 µM in data set [4] is less than 1.5 ×10⁻⁶ cm/s. In data set [3] (Homo sapiens), this molecule displayed an EC50 of 150 nM.

In the case of `CCCc1cn(-c2cnc(-n3ncc4cc(C#N)cnc43)cc2Nc2cnn(CC(F)F)c2)nn1` [Example 269, 1-(4-((1-(2,2-difluoroethyl)-1H-pyrazol-4-yl)amino)-5-(4-propyl-1H-1,2,3-triazol-1-yl)pyridin-2-yl)-1H-pyrazolo[3,4-b]pyridine-5-carbonitrile], the IC50 in data set [1] amounted to 4 nM. In data set [4], the Papp at 2 h, 3 µM came out at 3.8 ×10⁻⁶ cm/s. The molecule further showed an EC50 in data set [3] (Homo sapiens) of 390 nM.

Take `CC(C)(O)CCc1cn(-c2cnc(-n3ncc4cc(C#N)cnc43)cc2N[C@H]2CC[C@H](F)C2)nn1` [Example 368, 1-(4-(((1S,3S)-3-fluorocyclopentyl)amino)-5-(4-(3-hydroxy-3-methylbutyl)-1H-1,2,3-triazol-1-yl)pyridin-2-yl)-1H-pyrazolo[3,4-b]pyridine-5-carbonitrile]: the IC50 in data set [1] was found to be 3 nM. Further, the Papp at 2 h, 3 µM in data set [4] is 3.2 ×10⁻⁶ cm/s. It took 180 nM to reach a half-maximal effect in data set [3] (Homo sapiens) (EC50).

As for `CC(C)Nc1cc(-n2ncc3cc(C#N)cnc32)ncc1-n1cc(CCN2CCOCC2)nn1` [Example 349, 1-(4-(isopropylamino)-5-(4-(2-morpholinoethyl)-1H-1,2,3-triazol-1-yl)pyridin-2-yl)-1H-pyrazolo[3,4-b]pyridine-5-carbonitrile], the IC50 in data set [1] worked out at 3 nM. The Papp at 2 h, 3 µM in data set [4] came out at 18.6 ×10⁻⁶ cm/s. The midpoint of the response in data set [3] (Homo sapiens), the EC50, lay at 270 nM.

Consider `CC(C)Nc1cc(-n2ncc3cc(C#N)cnc32)ncc1-c1cn(CCc2cccnc2)nn1` [Example 119, 1-(4-(isopropylamino)-5-(1-(2-(pyridin-3-yl)ethyl)-1H-1,2,3-triazol-4-yl)pyridin-2-yl)-1H-pyrazolo[3,4-b]pyridine-5-carbonitrile], for which the IC50 in data set [1] was 2 nM. This molecule also had a Papp at 2 h, 3 µM in data set [4] of 5 ×10⁻⁶ cm/s. Besides, in data set [3] (Homo sapiens), the EC50 is 430 nM.

In the case of `CC(C)Nc1cc(-n2ncc3cc(C#N)cnc32)ncc1-c1cn([C@H]2CC[C@H](NCC(F)F)CC2)nn1` [Example 394, 1-(5-(1-((1r,4r)-4-((2,2-difluoroethyl)amino)cyclohexyl)-1H-1,2,3-triazol-4-yl)-4-(isopropylamino)pyridin-2-yl)-1H-pyrazolo[3,4-b]pyridine-5-carbonitrile], in data set [1], the IC50 is 2 nM. Besides, the apparent permeability coefficient (Papp) at 2 h, 3 µM in data set [4] turned out to be 9.1 ×10⁻⁶ cm/s. The molecule further came in with a concentration giving a half-maximal response (EC50) in data set [3] (Homo sapiens) of 250 nM.

`CC(C)Nc1cc(-n2ncc3cc(C#N)cnc32)ncc1-c1cc([C@H]2C[C@@H](O)CCN2)no1` [Example 425, 1-(5-(3-((2R,4S)-4-hydroxypiperidin-2-yl)isoxazol-5-yl)-4-(isopropylamino)pyridin-2-yl)-1H-pyrazolo[3,4-b]pyridine-5-carbonitrile]: the IC50 in data set [1] was found to be 9 nM. For the same molecule, the Papp at 2 h, 3 µM in data set [4] is less than 1.5 ×10⁻⁶ cm/s. Besides, in data set [3] (Homo sapiens), the EC50 was 140 nM.

As for `CC(C)Nc1cc(-n2ncc3cc(C#N)cnc32)ncc1-c1cn(C2CCN(C)C2=O)nn1` (centres unmarked) [Example 21, 1-(4-(isopropylamino)-5-(1-(1-methyl-2-oxopyrrolidin-3-yl)-1H-1,2,3-triazol-4-yl)pyridin-2-yl)-1H-pyrazolo[3,4-b]pyridine-5-carbonitrile], the IC50 in data set [1] came out at 4 nM. The Papp at 2 h, 3 µM in data set [4] was 4.2 ×10⁻⁶ cm/s. For the same molecule, the EC50 in data set [3] (Homo sapiens) came out at 320 nM.

With `CC(F)Cn1cc(-c2cnc(-n3ncc4cc(C#N)cnc43)cc2NC(C)C)nn1` (single isomer, unassigned; enantiomer 1) [Example 166, 1-(5-(1-(2-fluoropropyl)-1H-1,2,3-triazol-4-yl)-4-(isopropylamino)pyridin-2-yl)-1H-pyrazolo[3,4-b]pyridine-5-carbonitrile, enantiomer 1], the IC50 in data set [1] is 6 nM. Further, the Papp at 2 h, 3 µM in data set [4] was found to be 36.1 ×10⁻⁶ cm/s. The midpoint of the response in data set [3], the EC50, lay at 110 nM.

For the molecule `CCCc1cn(-c2cnc(-n3ncc4cc(C#N)c(N)nc43)cc2NC(C)C)nn1` [Example 280, 6-amino-1-(4-(isopropylamino)-5-(4-propyl-1H-1,2,3-triazol-1-yl)pyridin-2-yl)-1H-pyrazolo[3,4-b]pyridine-5-carbonitrile], the IC50 in data set [1] was determined as 3 nM. This molecule also yielded a Papp at 2 h, 3 µM in data set [4] of 27.6 ×10⁻⁶ cm/s. The same molecule yielded an EC50 in data set [3] (Homo sapiens) of 230 nM.

`CC(C)(O)CCc1cn(-c2cnc(-n3ncc4cc(C#N)cnc43)cc2N[C@H]2CC[C@@H](F)C2)nn1` [Example 372, 1-(4-(((1S,3R)-3-fluorocyclopentyl)amino)-5-(4-(3-hydroxy-3-methylbutyl)-1H-1,2,3-triazol-1-yl)pyridin-2-yl)-1H-pyrazolo[3,4-b]pyridine-5-carbonitrile]: the IC50 in data set [1] came out at 4 nM. For the same molecule, in data set [4], the Papp at 2 h, 3 µM stood at 3.6 ×10⁻⁶ cm/s. For the same molecule, the EC50 in data set [3] (Homo sapiens) was 330 nM.

`CC(=O)N1CC(c2cn(-c3cnc(-n4ncc5cc(C#N)cnc54)cc3NC(C)C)nn2)C1` [Example 339, 1-(5-(4-(1-acetylazetidin-3-yl)-1H-1,2,3-triazol-1-yl)-4-(isopropylamino)pyridin-2-yl)-1H-pyrazolo[3,4-b]pyridine-5-carbonitrile]: the IC50 in data set [1] amounted to 5 nM. The molecule also returned a Papp at 2 h, 3 µM in data set [4] of less than 1.5 ×10⁻⁶ cm/s. In addition, a half-maximal response in data set [3] (Homo sapiens) (EC50) required 390 nM.

`CC(C)Nc1cc(-n2ncc3cc(C#N)cnc32)ncc1-n1cc(C2CCN(CC(F)F)CC2)nn1` [Example 336, 1-(5-(4-(1-(2,2-difluoroethyl)piperidin-4-yl)-1H-1,2,3-triazol-1-yl)-4-(isopropylamino)pyridin-2-yl)-1H-pyrazolo[3,4-b]pyridine-5-carbonitrile]: in data set [1], the IC50 came out at 7 nM. This molecule also yielded a Papp at 2 h, 3 µM in data set [4] of 25 ×10⁻⁶ cm/s. Also, the EC50 in data set [3] (Homo sapiens) was determined as 220 nM.

For the molecule `CC(=O)N1CC[C@@H](c2cc(-c3cnc(-n4ncc5cc(C#N)cnc54)cc3NC(C)C)on2)C1` [Example 406, (R)-1-(5-(3-(1-acetylpyrrolidin-3-yl)isoxazol-5-yl)-4-(isopropylamino)pyridin-2-yl)-1H-pyrazolo [3,4-b]pyridine-5-carbonitrile], in data set [1], the IC50 was found to be 3 nM. For the same molecule, the apparent permeability coefficient (Papp) at 2 h, 3 µM in data set [4] stood at 16.3 ×10⁻⁶ cm/s. In data set [3] (Homo sapiens), this molecule yielded an EC50 of 470 nM.
